Reference: patent US20230094471A1, “CYTOTOXIC BIS-BENZODIAZEPINE DERIVATIVES AND CONJUGATES THEREOF WITH CELL-BINDING AGENTS FOR INHIBITING ABNORMAL CELL GROWTH OR FOR TREATING PROLIFERATIVE DISEASES” (priority 2019, published 2023)

Columns and labels:
[1] = tested on: Namalwa (Burkitt's lymphoma); assay: In vitro cytotoxicity assay (WST-8), Namalwa cells; settings: read-out: IC50 values for free cytotoxic compounds, Namalwa
Experimental: (§1) The following cell lines were used for the studies: KB (cervical carcinoma, ATCC), NCI-H2110 (Non Small Cell Lung Carcinoma, ATCC), Namalwa (Burkitt's lymphoma, ATCC), and T47D (breast epithelial cancer, ATCC). The cells were maintained and plated for the cytotox experiments in media recommended by the manufacturers. Cells were plated in the 96-well flat bottom plates at a seeding density of 1,000 cells per well (KB, Namalwa) or 2,000 cell per well (NCI H2110, T47D). […] To determine specificity of cytotoxic activity of the conjugates an excess of unconjugated antibody was added to a separate set of diluted conjugates (+block samples, IC50 table). The plates were incubated at 37° C., 5% CO2 for either 4 days (T47D cells) or 5 days (KB, NCI H2110 cells). Alamar blue assay (Invitrogen) was used to determine viability of T47D cells, and WST-8 assay (Donjindo Molecular Technologies, Inc.) was applied for viability of KB, NCI H2110, Namalwa cells. The assays were performed in accordance with the manufacturer's protocols. Killing curves and IC50 were generated using a sigmoidal dose-response nonlinear regression curve fit (GraphPad Software Inc.).

KB (cervical carcinoma) = assay: In vitro cytotoxicity assay (WST-8), KB cells; settings: Homo sapiens, 120 h, read-out: IC50 values for free cytotoxic compounds, KB
Experimental: as §1

[2] = Phase I clinical evaluation (Hochhauser et al., 2009); cited from earlier work

COC(=O)c1cc(COc2cc3c(cc2OC)C(=O)N2c4ccccc4C[C@H]2C=N3)cc(COc2cc3c(cc2OC)C(=O)N2c4ccccc4C[C@H]2CN3)c1 [Compound 157]
IC50 [1]: 1 pM | IC50 (KB (cervical carcinoma)): 3 pM

COc1cc2c(cc1OCc1cccc(COc3cc4c(cc3OC)C(=O)N3c5ccccc5C[C@H]3CN4)n1)N=C[C@@H]1Cc3ccccc3N1C2=O [Compound 159]
IC50 [1]: 1 pM | IC50 (KB (cervical carcinoma)): 3 pM

COCCOCCOCCNc1cc(COc2cc3c(cc2OC)C(=O)N2c4ccccc4C[C@H]2C=N3)cc(COc2cc3c(cc2OC)C(=O)N2c4ccccc4C[C@H]2CN3)c1 [Compound 155]
IC50 [1]: 2 pM | IC50 (KB (cervical carcinoma)): 20 pM

C=C1C[C@H]2C=Nc3cc(OCCCOc4cc5c(cc4OC)C(=O)N4CC(=C)C[C@H]4C=N5)c(OC)cc3C(=O)N2C1 [SJG-136]
maximum tolerated dose [2]: 45 μg/m^2

COc1cc2c(cc1OCCCOc1cc3c(cc1OC)C(=O)N1c4ccccc4C[C@H]1CN3)N=C[C@@H]1Cc3ccccc3N1C2=O [Compound 161]
IC50 [1]: 30 pM | IC50 (KB (cervical carcinoma)): 250 pM

COc1cc2c(cc1OCc1cccc(COc3cc4c(cc3OC)C(=O)N3c5ccccc5C[C@H]3CN4)c1)N=C[C@@H]1Cc3ccccc3N1C2=O [Compound 150]
IC50 [1]: 1 pM | IC50 (KB (cervical carcinoma)): 8 pM

COc1cc2c(cc1OCCCCCOc1cc3c(cc1OC)C(=O)N1Cc4ccccc4C[C@H]1CN3)N=C[C@@H]1Cc3ccccc3N1C2=O [Compound 108]
IC50 [1]: 10 pM | IC50 (KB (cervical carcinoma)): 50 pM

COc1cc2c(cc1OCCCCCOc1cc3c(cc1OC)C(=O)N1c4ccccc4C[C@H]1CN3)N=C[C@@H]1Cc3ccccc3CN1C2=O [Compound 123]
IC50 [1]: 1 pM | IC50 (KB (cervical carcinoma)): 3 pM

COc1cc2c(cc1OCCCCCOc1cc3c(cc1OC)C(=O)N1c4ccccc4C[C@H]1CN3)N=C[C@@H]1Cc3ccccc3N1C2=O [Compound 162]
IC50 [1]: 3 pM | IC50 (KB (cervical carcinoma)): 20 pM
